According to US20120165403A1, “METHODS OF INHIBITING THE ACTIVITY OF HSP90 AND/OR ARYL HYDROCARBON RECEPTOR” (UNIVERSITY OF ROCHESTER, priority 2004, published 2012):

Key:
XAP2 = target: T1, XAP2 (Mus musculus, UniProt O08915); assay: Affinity chromatography on EGCG-conjugated Sepharose, XAP2; type: binding
T1 construct: His tag; made in house; host or cells: TNT rabbit reticulocyte lysate; partly purified on TALON cobalt resin
T1 sequence (O08915 1-330): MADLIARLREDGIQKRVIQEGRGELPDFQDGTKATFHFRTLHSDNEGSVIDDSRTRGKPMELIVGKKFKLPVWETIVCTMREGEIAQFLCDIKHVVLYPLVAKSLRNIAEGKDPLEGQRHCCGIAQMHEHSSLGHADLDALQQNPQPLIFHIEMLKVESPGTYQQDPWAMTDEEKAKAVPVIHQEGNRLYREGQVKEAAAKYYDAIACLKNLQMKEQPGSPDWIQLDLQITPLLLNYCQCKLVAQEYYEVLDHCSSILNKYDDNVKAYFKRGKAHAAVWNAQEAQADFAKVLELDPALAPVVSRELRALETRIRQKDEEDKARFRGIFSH
Text: Murine AhR and ARNT cDNA (obtained from J. Whitlock and O. Hankinson, respectively) were inserted into pcDNA3 (Invitrogen, Carlsbad, Calif.). Chicken hsp90 constructs (FIG. 5), c90711hsp (wild-type), c90G94D (wild-type point mutant gly94→Asp (Grenert et al., J. Biol. Chem. 272:23843-23850 (1997), which is hereby incorporated by reference in its entirety), c90D92A (wild-type point mutant Asp92→Ala (Sullivan et al., J. Biol. Chem. 268:20373-20379 (1993), which is hereby incorporated by reference in its entirety), c90N221 (wild-type truncation mutant encoding a.a. 221-728 (Sullivan et al., J. Biol. Chem. 268:20373-20379 (1993), which is hereby incorporated by reference in its entirety)), c90N303 (a.a. 303-728) and c90N538 (a.a. 538-728) were kind gifts from Dr. D. Toft (Rochester, Minn.). The C-terminal truncation mutant c900507 (a.a. 1-221) was obtained from Dr. L. Neckers (Rockville, Md.) (Grenert et al., J. Biol. Chem. 272:23843-23850 (1997); Marcu et al., J. Biol. Chem. 275:37181-37186 (2000), which are hereby incorporated by reference in their entirety). Human p23 cDNA was excised from pQE80-p23 (obtained from W. Chan Stockton, Calif.) by sequential digests using the restriction enzymes Sad (3′-end) and BamHI (5′-end) and inserted into the similarly digested pET28a (Novagen, Madison, Wis.). The mouse histidine-tagged XAP2 construct, pET-AIP (Bell et al., J. Biol. Chem. 275:36407-36414 (2000), which is hereby incorporated by reference in its entirety), was a kind gift from Dr. D. Bell (Nottingham, UK). All constructs are in the T7 orientation with the exception of c900507, which is driven by an SP6 promoter.
AhR, ARNT, hsp90 (wild-type, point mutants, and truncation mutants), p23, and XAP2 were generated (separately) by coupled transcription/translation in rabbit reticulocyte lysate (RRL) using the TNT® system according to the manufacturer's protocol (Promega, Madison Wis.). In this system, ^35S-methionine was included in the transcription/translation mix to generate ^35S-labeled protein.
Immobilized Metal Affinity Chromatography (IMAC) Purification of Histidine-Tagged XAP2. The TALON IMAC method was used for purification of XAP2 from RRL following a modified protocol (Clonetech). A 500 μL (50% slurry) of cobalt resin was washed at room temperature three times with TALON buffer (50 mM Na2PO4, 300 mM NaCl, pH 7.0) according to the manufacturer's protocol. A 175 μL aliquot of undiluted ^35S-XAP2 in RRL was added to a 15 ml conical tube containing the washed resin in TALON buffer for 20 minutes at room temperature end-over-end. […] Each aliquot was collected separately and analyzed for the presence of ^35S-XAP2 by SDS-PAGE followed by Phosphorimaging (PSI; Molecular Dynamics, Sunnyvale, Calif.). […]

AhR = type: biochemical, mouse
Experimental: Hepa cytosol (2.5 mg protein/ml) was incubated with a range of concentrations of EGCG (1-200 μM) or EGCG in the presence of 3 nM TCDD for 2 h at room temperature. Treated cytosols (21-25 μg) were mixed with nonspecific DNA (herring sperm), 0.08M NaCl, and 25,000-45,000 cpm of [^32P]-endlabeled oligonucleotide containing a single consensus DRE (Gasiewicz et al., Biochem. Pharmacol. 52:1787-1803 (1996), which is hereby incorporated by reference in its entirety). Samples were subjected to nondenaturing electrophoresis (4% acrylamide) and visualized using a Phosphoimager.

O=C(O[C@@H]1Cc2c(O)cc(O)cc2O[C@@H]1c1cc(O)c(O)c(O)c1)c1cc(O)c(O)c(O)c1 [EGCG, epigallocatechin gallate]
binding of XAP2 to EGCG-Sepharose (XAP2; 35S-XAP2 in RRL): eluted from EGCG-Sepharose
binding of XAP2 to EGCG-Sepharose (XAP2; Hepa cytosol): also eluted from EGCG-Sepharose
binding of purified XAP2 to immobilized EGCG (XAP2; His-purified XAP2, devoid of detectable hsp90): not specifically eluted from immobilized EGCG
binding of purified XAP2 after reconstitution (XAP2; His-purified XAP2 with purified hsp90 or RRL): restores XAP2 elution
DRE binding, treatment alone (AhR; Hepa cytosol and extracts from treated whole cells, EGCG alone): DRE binding was not observed
inhibition of TCDD-induced AhR-DRE binding (AhR; Hepa cytosol, 100 μM EGCG, 3 nM TCDD, 2 h): ~100%
effect on the TCDD-AhR-DRE shifted band (AhR; Hepa cytosol, EGCG 1-200 μM, 3 nM TCDD): concentration dependent decrease
